Laboratory results as given in the kinase profiling compilation of Christmann-Franck et al. (2016).

The compounds below were run against MAP3K9 (human) (UniProt P80192) (assay: radiometric filter-binding kinase assay, Kinase HotSpot). Settings: compound 0.5 µM; ATP 10 µM.

In order of rising residual activity:
1. O=C1NC(=O)c2c1c1c3ccccc3[nH]c1c1[nH]c3cc(Br)ccc3c21  7.57%
2. O=c1[nH]c2ccccc2n1C1CCN(Cc2ccc(-c3nc4cc5[nH]cnc5cc4nc3-c3ccccc3)cc2)CC1  93.9%
3. CCOc1cc2ncnc(Nc3cccc(Br)c3)c2cc1OCC  96.1%
4. COc1cc2c(N3CCN(C(=O)Nc4ccc(OC(C)C)cc4)CC3)ncnc2cc1OCCCN1CCCCC1  108%

The compounds below were run against MAPK10 (human) (UniProt P53779) in the same assay as above. Settings: compound 0.5 µM; ATP 10 µM.

In order of falling residual activity:
1. O=C1NC(=O)c2c1c1c3ccccc3[nH]c1c1[nH]c3cc(Br)ccc3c21  105%
2. CCOc1cc2ncnc(Nc3cccc(Br)c3)c2cc1OCC  101%
3. O=c1[nH]c2ccccc2n1C1CCN(Cc2ccc(-c3nc4cc5[nH]cnc5cc4nc3-c3ccccc3)cc2)CC1  96%
4. COc1cc2c(N3CCN(C(=O)Nc4ccc(OC(C)C)cc4)CC3)ncnc2cc1OCCCN1CCCCC1  94.6%

What follows are compounds tested against NUAK1 (human) (UniProt O60285) in the same assay as above. Settings: compound 0.5 µM; ATP 10 µM.

In order of falling residual activity:
1. COc1cc2c(N3CCN(C(=O)Nc4ccc(OC(C)C)cc4)CC3)ncnc2cc1OCCCN1CCCCC1  104%
2. O=c1[nH]c2ccccc2n1C1CCN(Cc2ccc(-c3nc4cc5[nH]cnc5cc4nc3-c3ccccc3)cc2)CC1  103%
3. CCOc1cc2ncnc(Nc3cccc(Br)c3)c2cc1OCC  94%
4. O=C1NC(=O)c2c1c1c3ccccc3[nH]c1c1[nH]c3cc(Br)ccc3c21  14.3%

The compounds below were run against MARK1 (human) (UniProt Q9P0L2) in the same assay as above. Settings: compound 0.5 µM; ATP 10 µM.

In order of falling residual activity:
1. O=c1[nH]c2ccccc2n1C1CCN(Cc2ccc(-c3nc4cc5[nH]cnc5cc4nc3-c3ccccc3)cc2)CC1  104%
2. CCOc1cc2ncnc(Nc3cccc(Br)c3)c2cc1OCC  90.3%
3. COc1cc2c(N3CCN(C(=O)Nc4ccc(OC(C)C)cc4)CC3)ncnc2cc1OCCCN1CCCCC1  89.9%
4. O=C1NC(=O)c2c1c1c3ccccc3[nH]c1c1[nH]c3cc(Br)ccc3c21  42%

Each compound was assayed against EPHB4 (human) (UniProt P54760) in the same assay as above. Settings: compound 0.5 µM; ATP 10 µM.

In order of rising residual activity:
1. CCOc1cc2ncnc(Nc3cccc(Br)c3)c2cc1OCC  43%
2. O=C1NC(=O)c2c1c1c3ccccc3[nH]c1c1[nH]c3cc(Br)ccc3c21  86.5%
3. COc1cc2c(N3CCN(C(=O)Nc4ccc(OC(C)C)cc4)CC3)ncnc2cc1OCCCN1CCCCC1  95%
4. O=c1[nH]c2ccccc2n1C1CCN(Cc2ccc(-c3nc4cc5[nH]cnc5cc4nc3-c3ccccc3)cc2)CC1  96.4%

Each compound was assayed against GSG2 (human) (UniProt Q8TF76) in the same assay as above. Settings: compound 0.5 µM; ATP 10 µM.
Sequence of GSG2 (human) (Q8TF76 whole entry, looked up): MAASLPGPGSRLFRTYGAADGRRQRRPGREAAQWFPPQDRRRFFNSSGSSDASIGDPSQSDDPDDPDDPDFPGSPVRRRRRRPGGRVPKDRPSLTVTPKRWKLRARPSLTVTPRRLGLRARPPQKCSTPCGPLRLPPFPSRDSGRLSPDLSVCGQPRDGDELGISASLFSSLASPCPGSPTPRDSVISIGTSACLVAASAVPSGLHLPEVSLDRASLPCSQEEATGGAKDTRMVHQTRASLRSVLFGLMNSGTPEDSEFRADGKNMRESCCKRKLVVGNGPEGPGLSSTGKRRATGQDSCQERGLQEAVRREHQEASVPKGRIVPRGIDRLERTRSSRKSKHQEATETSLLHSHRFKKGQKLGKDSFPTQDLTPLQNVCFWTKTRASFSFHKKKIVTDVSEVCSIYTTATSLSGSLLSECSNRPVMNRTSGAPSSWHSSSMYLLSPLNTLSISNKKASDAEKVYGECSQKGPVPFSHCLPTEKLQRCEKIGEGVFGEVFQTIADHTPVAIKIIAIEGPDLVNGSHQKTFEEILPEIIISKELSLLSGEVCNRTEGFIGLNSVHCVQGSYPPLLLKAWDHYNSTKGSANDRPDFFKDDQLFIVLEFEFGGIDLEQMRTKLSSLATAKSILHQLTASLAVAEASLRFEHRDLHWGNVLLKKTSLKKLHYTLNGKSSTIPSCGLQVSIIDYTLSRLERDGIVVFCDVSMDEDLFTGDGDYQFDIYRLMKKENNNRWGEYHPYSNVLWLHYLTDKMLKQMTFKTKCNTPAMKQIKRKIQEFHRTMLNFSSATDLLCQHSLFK

In order of rising residual activity:
1. O=C1NC(=O)c2c1c1c3ccccc3[nH]c1c1[nH]c3cc(Br)ccc3c21  72.9%
2. CCOc1cc2ncnc(Nc3cccc(Br)c3)c2cc1OCC  90.6%
3. COc1cc2c(N3CCN(C(=O)Nc4ccc(OC(C)C)cc4)CC3)ncnc2cc1OCCCN1CCCCC1  99.5%
4. O=c1[nH]c2ccccc2n1C1CCN(Cc2ccc(-c3nc4cc5[nH]cnc5cc4nc3-c3ccccc3)cc2)CC1  106%

The compounds below were run against LTK (human) (UniProt P29376) in the same assay as above. Settings: compound 0.5 µM; ATP 10 µM.
Sequence of LTK (human) (P29376 whole entry, looked up): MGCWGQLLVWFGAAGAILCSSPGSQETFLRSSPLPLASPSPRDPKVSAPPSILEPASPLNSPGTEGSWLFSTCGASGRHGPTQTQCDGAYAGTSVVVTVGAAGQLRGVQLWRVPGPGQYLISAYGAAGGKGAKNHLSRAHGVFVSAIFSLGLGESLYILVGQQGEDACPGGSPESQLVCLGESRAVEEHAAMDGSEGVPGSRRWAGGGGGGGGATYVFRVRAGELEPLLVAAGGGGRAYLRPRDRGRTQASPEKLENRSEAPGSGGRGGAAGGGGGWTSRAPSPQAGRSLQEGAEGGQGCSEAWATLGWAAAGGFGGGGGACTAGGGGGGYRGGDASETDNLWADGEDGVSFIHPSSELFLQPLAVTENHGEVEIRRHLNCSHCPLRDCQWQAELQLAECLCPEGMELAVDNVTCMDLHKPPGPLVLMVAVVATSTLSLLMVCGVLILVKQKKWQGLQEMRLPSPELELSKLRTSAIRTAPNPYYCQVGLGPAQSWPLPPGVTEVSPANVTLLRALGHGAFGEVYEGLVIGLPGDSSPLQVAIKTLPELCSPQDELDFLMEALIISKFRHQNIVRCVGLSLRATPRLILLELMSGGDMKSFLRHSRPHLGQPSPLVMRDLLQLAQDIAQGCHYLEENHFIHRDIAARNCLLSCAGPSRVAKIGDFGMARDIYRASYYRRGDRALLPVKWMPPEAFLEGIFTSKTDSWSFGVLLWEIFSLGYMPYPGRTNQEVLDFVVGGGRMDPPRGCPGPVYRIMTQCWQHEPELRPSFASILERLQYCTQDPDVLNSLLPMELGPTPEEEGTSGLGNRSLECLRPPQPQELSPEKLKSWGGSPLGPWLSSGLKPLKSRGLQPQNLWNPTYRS

In order of rising residual activity:
1. CCOc1cc2ncnc(Nc3cccc(Br)c3)c2cc1OCC  69.7%
2. O=C1NC(=O)c2c1c1c3ccccc3[nH]c1c1[nH]c3cc(Br)ccc3c21  89.9%
3. O=c1[nH]c2ccccc2n1C1CCN(Cc2ccc(-c3nc4cc5[nH]cnc5cc4nc3-c3ccccc3)cc2)CC1  95.6%
4. COc1cc2c(N3CCN(C(=O)Nc4ccc(OC(C)C)cc4)CC3)ncnc2cc1OCCCN1CCCCC1  101%

The compounds below were run against CDK5 CDK5R1 p25 (human) (UniProt Q00535+Q15078) in the same assay as above. Settings: compound 0.5 µM.

For O=c1[nH]c2ccccc2n1C1CCN(Cc2ccc(-c3nc4cc5[nH]cnc5cc4nc3-c3ccccc3)cc2)CC1, the residual activity was 96.9%.

Same assay, conditions: compound 0.5 µM; ATP 10 µM

In order of rising residual activity:
1. O=C1NC(=O)c2c1c1c3ccccc3[nH]c1c1[nH]c3cc(Br)ccc3c21  43.4%
2. CCOc1cc2ncnc(Nc3cccc(Br)c3)c2cc1OCC  89.5%
3. COc1cc2c(N3CCN(C(=O)Nc4ccc(OC(C)C)cc4)CC3)ncnc2cc1OCCCN1CCCCC1  104%

What follows are compounds tested against MAPKAPK5 (human) (UniProt Q8IW41) in the same assay as above. Settings: compound 0.5 µM; ATP 10 µM.

In order of rising residual activity:
1. CCOc1cc2ncnc(Nc3cccc(Br)c3)c2cc1OCC  71.6%
2. O=C1NC(=O)c2c1c1c3ccccc3[nH]c1c1[nH]c3cc(Br)ccc3c21  86.2%
3. COc1cc2c(N3CCN(C(=O)Nc4ccc(OC(C)C)cc4)CC3)ncnc2cc1OCCCN1CCCCC1  91.9%
4. O=c1[nH]c2ccccc2n1C1CCN(Cc2ccc(-c3nc4cc5[nH]cnc5cc4nc3-c3ccccc3)cc2)CC1  97.4%

The compounds below were run against CAMK2A (human) (UniProt Q9UQM7) in the same assay as above. Settings: compound 0.5 µM; ATP 10 µM.
Sequence of CAMK2A (human) (Q9UQM7 whole entry, looked up): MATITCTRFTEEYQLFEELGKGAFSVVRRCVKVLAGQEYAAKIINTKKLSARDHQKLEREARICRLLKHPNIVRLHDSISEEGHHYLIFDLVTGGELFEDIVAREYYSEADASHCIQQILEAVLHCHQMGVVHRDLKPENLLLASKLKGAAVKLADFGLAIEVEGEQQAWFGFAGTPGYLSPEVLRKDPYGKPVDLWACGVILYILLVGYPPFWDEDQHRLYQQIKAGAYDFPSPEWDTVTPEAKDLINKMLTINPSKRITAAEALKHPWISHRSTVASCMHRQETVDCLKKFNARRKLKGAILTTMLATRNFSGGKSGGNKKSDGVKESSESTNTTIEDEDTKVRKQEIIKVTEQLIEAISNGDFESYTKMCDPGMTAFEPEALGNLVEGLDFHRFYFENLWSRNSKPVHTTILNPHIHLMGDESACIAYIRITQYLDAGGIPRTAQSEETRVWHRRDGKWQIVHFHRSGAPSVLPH

In order of falling residual activity:
1. O=c1[nH]c2ccccc2n1C1CCN(Cc2ccc(-c3nc4cc5[nH]cnc5cc4nc3-c3ccccc3)cc2)CC1  109%
2. CCOc1cc2ncnc(Nc3cccc(Br)c3)c2cc1OCC  103%
3. COc1cc2c(N3CCN(C(=O)Nc4ccc(OC(C)C)cc4)CC3)ncnc2cc1OCCCN1CCCCC1  101%
4. O=C1NC(=O)c2c1c1c3ccccc3[nH]c1c1[nH]c3cc(Br)ccc3c21  78.3%

What follows are compounds tested against JAK1 JH1 catalytic (human) (UniProt P23458) in the same assay as above. Settings: compound 0.5 µM; ATP 10 µM.

In order of rising residual activity:
1. O=c1[nH]c2ccccc2n1C1CCN(Cc2ccc(-c3nc4cc5[nH]cnc5cc4nc3-c3ccccc3)cc2)CC1  94.6%
2. CCOc1cc2ncnc(Nc3cccc(Br)c3)c2cc1OCC  102%
3. COc1cc2c(N3CCN(C(=O)Nc4ccc(OC(C)C)cc4)CC3)ncnc2cc1OCCCN1CCCCC1  102%
4. O=C1NC(=O)c2c1c1c3ccccc3[nH]c1c1[nH]c3cc(Br)ccc3c21  110%

The compounds below were run against DCLK2 (human) (UniProt Q8N568) in the same assay as above. Settings: compound 0.5 µM; ATP 10 µM.

In order of falling residual activity:
1. O=c1[nH]c2ccccc2n1C1CCN(Cc2ccc(-c3nc4cc5[nH]cnc5cc4nc3-c3ccccc3)cc2)CC1  107%
2. COc1cc2c(N3CCN(C(=O)Nc4ccc(OC(C)C)cc4)CC3)ncnc2cc1OCCCN1CCCCC1  103%
3. CCOc1cc2ncnc(Nc3cccc(Br)c3)c2cc1OCC  99.5%
4. O=C1NC(=O)c2c1c1c3ccccc3[nH]c1c1[nH]c3cc(Br)ccc3c21  87.2%

These compounds were tested against VRK1 (human) (UniProt Q99986) in the same assay as above. Settings: compound 0.5 µM; ATP 10 µM.

In order of rising residual activity:
1. O=C1NC(=O)c2c1c1c3ccccc3[nH]c1c1[nH]c3cc(Br)ccc3c21  92.3%
2. O=c1[nH]c2ccccc2n1C1CCN(Cc2ccc(-c3nc4cc5[nH]cnc5cc4nc3-c3ccccc3)cc2)CC1  98.3%
3. COc1cc2c(N3CCN(C(=O)Nc4ccc(OC(C)C)cc4)CC3)ncnc2cc1OCCCN1CCCCC1  100%
4. CCOc1cc2ncnc(Nc3cccc(Br)c3)c2cc1OCC  101%

Each compound was assayed against TAOK2 (human) (UniProt Q9UL54) in the same assay as above. Settings: compound 0.5 µM; ATP 10 µM.

In order of falling residual activity:
1. COc1cc2c(N3CCN(C(=O)Nc4ccc(OC(C)C)cc4)CC3)ncnc2cc1OCCCN1CCCCC1  102%
2. CCOc1cc2ncnc(Nc3cccc(Br)c3)c2cc1OCC  101%
3. O=c1[nH]c2ccccc2n1C1CCN(Cc2ccc(-c3nc4cc5[nH]cnc5cc4nc3-c3ccccc3)cc2)CC1  98.8%
4. O=C1NC(=O)c2c1c1c3ccccc3[nH]c1c1[nH]c3cc(Br)ccc3c21  94.1%

The compounds below were run against STK4 (human) (UniProt Q13043) in the same assay as above. Settings: compound 0.5 µM; ATP 10 µM.

In order of rising residual activity:
1. O=C1NC(=O)c2c1c1c3ccccc3[nH]c1c1[nH]c3cc(Br)ccc3c21  52%
2. O=c1[nH]c2ccccc2n1C1CCN(Cc2ccc(-c3nc4cc5[nH]cnc5cc4nc3-c3ccccc3)cc2)CC1  95.2%
3. COc1cc2c(N3CCN(C(=O)Nc4ccc(OC(C)C)cc4)CC3)ncnc2cc1OCCCN1CCCCC1  96.2%
4. CCOc1cc2ncnc(Nc3cccc(Br)c3)c2cc1OCC  98.5%

These compounds were tested against PIM1 (human) (UniProt P11309) in the same assay as above. Settings: compound 0.5 µM; ATP 10 µM.

In order of falling residual activity:
1. O=c1[nH]c2ccccc2n1C1CCN(Cc2ccc(-c3nc4cc5[nH]cnc5cc4nc3-c3ccccc3)cc2)CC1  106%
2. COc1cc2c(N3CCN(C(=O)Nc4ccc(OC(C)C)cc4)CC3)ncnc2cc1OCCCN1CCCCC1  97.8%
3. CCOc1cc2ncnc(Nc3cccc(Br)c3)c2cc1OCC  92.1%
4. O=C1NC(=O)c2c1c1c3ccccc3[nH]c1c1[nH]c3cc(Br)ccc3c21  8.84%

Each compound was assayed against CAMK2D (human) (UniProt Q13557) in the same assay as above. Settings: compound 0.5 µM; ATP 10 µM.
Sequence of CAMK2D (human) (Q13557 whole entry, looked up): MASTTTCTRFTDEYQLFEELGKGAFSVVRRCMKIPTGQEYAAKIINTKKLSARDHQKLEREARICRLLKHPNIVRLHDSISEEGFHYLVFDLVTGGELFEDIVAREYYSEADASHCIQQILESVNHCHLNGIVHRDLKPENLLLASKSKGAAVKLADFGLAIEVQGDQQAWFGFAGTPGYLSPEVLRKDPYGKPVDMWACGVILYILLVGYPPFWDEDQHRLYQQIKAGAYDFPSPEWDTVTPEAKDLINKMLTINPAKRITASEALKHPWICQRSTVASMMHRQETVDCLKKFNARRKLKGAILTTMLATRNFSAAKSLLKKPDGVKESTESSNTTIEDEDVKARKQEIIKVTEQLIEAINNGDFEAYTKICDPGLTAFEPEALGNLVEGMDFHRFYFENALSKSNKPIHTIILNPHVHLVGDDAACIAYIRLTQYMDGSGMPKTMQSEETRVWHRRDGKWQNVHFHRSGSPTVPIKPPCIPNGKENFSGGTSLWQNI

In order of falling residual activity:
1. COc1cc2c(N3CCN(C(=O)Nc4ccc(OC(C)C)cc4)CC3)ncnc2cc1OCCCN1CCCCC1  106%
2. O=c1[nH]c2ccccc2n1C1CCN(Cc2ccc(-c3nc4cc5[nH]cnc5cc4nc3-c3ccccc3)cc2)CC1  97.7%
3. CCOc1cc2ncnc(Nc3cccc(Br)c3)c2cc1OCC  87%
4. O=C1NC(=O)c2c1c1c3ccccc3[nH]c1c1[nH]c3cc(Br)ccc3c21  63.1%

Each compound was assayed against NEK4 (human) (UniProt P51957) in the same assay as above. Settings: compound 0.5 µM; ATP 10 µM.
Sequence of NEK4 (human) (P51957 whole entry, looked up): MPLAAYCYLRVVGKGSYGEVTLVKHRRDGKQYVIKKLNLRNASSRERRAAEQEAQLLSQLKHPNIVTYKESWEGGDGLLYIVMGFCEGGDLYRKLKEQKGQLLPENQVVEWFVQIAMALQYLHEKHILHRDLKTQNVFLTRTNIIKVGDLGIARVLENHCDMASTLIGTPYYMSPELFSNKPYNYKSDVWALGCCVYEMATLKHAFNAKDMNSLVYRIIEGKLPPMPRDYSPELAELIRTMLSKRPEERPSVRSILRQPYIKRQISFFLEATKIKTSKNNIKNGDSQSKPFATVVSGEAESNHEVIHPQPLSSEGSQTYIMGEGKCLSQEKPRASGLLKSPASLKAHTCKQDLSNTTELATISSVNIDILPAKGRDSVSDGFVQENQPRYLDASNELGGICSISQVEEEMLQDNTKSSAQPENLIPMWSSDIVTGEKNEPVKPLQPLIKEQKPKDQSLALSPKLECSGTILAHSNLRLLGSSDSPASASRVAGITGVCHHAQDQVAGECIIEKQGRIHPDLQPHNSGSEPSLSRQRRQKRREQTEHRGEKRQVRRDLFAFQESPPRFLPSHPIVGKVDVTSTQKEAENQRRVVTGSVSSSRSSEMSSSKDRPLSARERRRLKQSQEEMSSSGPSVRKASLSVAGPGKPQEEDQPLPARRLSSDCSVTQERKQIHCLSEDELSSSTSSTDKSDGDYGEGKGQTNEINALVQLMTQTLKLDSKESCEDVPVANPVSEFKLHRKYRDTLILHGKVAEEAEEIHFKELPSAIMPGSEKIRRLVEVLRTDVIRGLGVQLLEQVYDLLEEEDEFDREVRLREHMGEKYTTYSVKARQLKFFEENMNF

In order of rising residual activity:
1. CCOc1cc2ncnc(Nc3cccc(Br)c3)c2cc1OCC  84.8%
2. O=C1NC(=O)c2c1c1c3ccccc3[nH]c1c1[nH]c3cc(Br)ccc3c21  89%
3. COc1cc2c(N3CCN(C(=O)Nc4ccc(OC(C)C)cc4)CC3)ncnc2cc1OCCCN1CCCCC1  90.3%
4. O=c1[nH]c2ccccc2n1C1CCN(Cc2ccc(-c3nc4cc5[nH]cnc5cc4nc3-c3ccccc3)cc2)CC1  106%

The compounds below were run against CDK6 CCND3 (human) (UniProt P30281+Q00534) in the same assay as above. Settings: compound 0.5 µM.
Sequence of CDK6 CCND3 (human) (P30281 whole entry, looked up): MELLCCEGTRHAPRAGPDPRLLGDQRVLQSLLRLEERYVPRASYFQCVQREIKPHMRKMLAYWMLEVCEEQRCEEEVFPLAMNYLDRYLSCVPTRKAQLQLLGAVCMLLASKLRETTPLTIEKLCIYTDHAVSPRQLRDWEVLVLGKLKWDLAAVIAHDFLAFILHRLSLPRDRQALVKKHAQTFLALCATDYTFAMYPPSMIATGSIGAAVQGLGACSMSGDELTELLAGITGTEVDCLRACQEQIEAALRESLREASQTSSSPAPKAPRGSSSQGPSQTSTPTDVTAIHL
Sequence of CDK6 CCND3 (human) (Q00534 whole entry, looked up): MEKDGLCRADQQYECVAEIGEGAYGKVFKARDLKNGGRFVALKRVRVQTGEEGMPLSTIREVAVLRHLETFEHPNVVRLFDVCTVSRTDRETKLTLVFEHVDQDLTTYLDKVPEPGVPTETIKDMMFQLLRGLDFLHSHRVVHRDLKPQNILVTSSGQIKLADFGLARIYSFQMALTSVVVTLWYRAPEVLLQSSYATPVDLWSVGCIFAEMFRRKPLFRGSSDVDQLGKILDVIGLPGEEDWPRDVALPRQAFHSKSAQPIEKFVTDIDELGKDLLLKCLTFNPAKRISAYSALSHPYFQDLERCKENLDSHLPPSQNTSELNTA

With O=c1[nH]c2ccccc2n1C1CCN(Cc2ccc(-c3nc4cc5[nH]cnc5cc4nc3-c3ccccc3)cc2)CC1 the residual activity was 99.1%.

Same assay, conditions: compound 0.5 µM; ATP 10 µM

In order of rising residual activity:
1. O=C1NC(=O)c2c1c1c3ccccc3[nH]c1c1[nH]c3cc(Br)ccc3c21  40.2%
2. COc1cc2c(N3CCN(C(=O)Nc4ccc(OC(C)C)cc4)CC3)ncnc2cc1OCCCN1CCCCC1  92.7%
3. CCOc1cc2ncnc(Nc3cccc(Br)c3)c2cc1OCC  104%

These compounds were tested against BTK (human) (UniProt Q06187) in the same assay as above. Settings: compound 0.5 µM; ATP 10 µM.
Sequence of BTK (human) (Q06187 whole entry, looked up): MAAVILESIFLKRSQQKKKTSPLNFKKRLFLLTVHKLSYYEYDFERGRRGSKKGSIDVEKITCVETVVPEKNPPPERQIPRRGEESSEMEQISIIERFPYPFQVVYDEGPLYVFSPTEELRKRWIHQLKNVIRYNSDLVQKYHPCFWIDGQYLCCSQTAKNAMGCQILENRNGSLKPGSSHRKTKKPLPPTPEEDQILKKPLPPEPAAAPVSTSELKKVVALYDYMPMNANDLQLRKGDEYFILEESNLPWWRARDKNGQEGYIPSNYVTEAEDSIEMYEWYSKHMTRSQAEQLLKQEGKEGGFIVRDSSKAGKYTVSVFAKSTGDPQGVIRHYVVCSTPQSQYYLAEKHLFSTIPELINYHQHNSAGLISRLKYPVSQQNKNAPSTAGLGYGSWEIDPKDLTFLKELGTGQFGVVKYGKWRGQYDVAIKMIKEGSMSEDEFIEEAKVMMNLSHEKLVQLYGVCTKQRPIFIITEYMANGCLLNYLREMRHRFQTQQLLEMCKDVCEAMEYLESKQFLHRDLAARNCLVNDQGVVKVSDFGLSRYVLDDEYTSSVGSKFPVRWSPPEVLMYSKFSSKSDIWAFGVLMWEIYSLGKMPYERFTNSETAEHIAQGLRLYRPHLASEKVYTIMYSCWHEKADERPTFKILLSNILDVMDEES

In order of rising residual activity:
1. CCOc1cc2ncnc(Nc3cccc(Br)c3)c2cc1OCC  72.7%
2. O=C1NC(=O)c2c1c1c3ccccc3[nH]c1c1[nH]c3cc(Br)ccc3c21  74.8%
3. O=c1[nH]c2ccccc2n1C1CCN(Cc2ccc(-c3nc4cc5[nH]cnc5cc4nc3-c3ccccc3)cc2)CC1  98.4%
4. COc1cc2c(N3CCN(C(=O)Nc4ccc(OC(C)C)cc4)CC3)ncnc2cc1OCCCN1CCCCC1  102%

These compounds were tested against PRKCH (human) (UniProt P24723) in the same assay as above. Settings: compound 0.5 µM; ATP 10 µM.

In order of rising residual activity:
1. CCOc1cc2ncnc(Nc3cccc(Br)c3)c2cc1OCC  94.9%
2. O=C1NC(=O)c2c1c1c3ccccc3[nH]c1c1[nH]c3cc(Br)ccc3c21  100%
3. O=c1[nH]c2ccccc2n1C1CCN(Cc2ccc(-c3nc4cc5[nH]cnc5cc4nc3-c3ccccc3)cc2)CC1  101%
4. COc1cc2c(N3CCN(C(=O)Nc4ccc(OC(C)C)cc4)CC3)ncnc2cc1OCCCN1CCCCC1  108%
